From patent US20260200947A1, “FUSED CYCLIC COMPOUNDS AND USE THEREOF” (Jacobio Pharmaceuticals Co., Ltd., priority 2022, published 2026)
Read-outs that look alike come from different tables or passages of the source.

What was measured:
GDP-KRAS G12D [1] = target: T1, GDP-KRAS G12D (Homo sapiens, UniProt P01116, G12D); experiment: SOS1 catalyzed nucleotide exchange assay, GDP-KRAS G12D; settings: read-out: Biochemical assays, IC50, KRAS G12D GDP, GDP form K-Ras G12D, TR-FRET
GDP-KRAS G12V [2] = target: T2, GDP-KRAS G12V (Homo sapiens, UniProt P01116, G12V); experiment: SOS1 catalyzed nucleotide exchange assay, GDP-KRAS G12V; settings: read-out: Biochemical assays, IC50, KRAS G12V GDP, GDP form K-Ras G12V, TR-FRET
SW620 cells (K-Ras G12V) [3] = experiment: Phospho-ERK1/2(THR202/TYR204) HTRF assay, SW620; assay type: cell-based; settings: read-out: pERK, IC50, SW620
[4] = system: AsPC-1 cells (K-Ras G12D)
SW620 cells (K-Ras G12V) [5] = system: SW620 cells (K-Ras G12V)
GppNp-KRAS G12D [6] = target: T3, GppNp-KRAS G12D (Homo sapiens, UniProt P01116, G12D); experiment: GTP-K-Ras and cRAF interaction assay, GppNp-KRAS G12D; settings: read-out: Biochemical assays, IC50, KRAS G12D GppNp; GppNp-loaded K-Ras G12D, cRAF RBD interaction, HTRF
[7] = system: Capan-2 cells (K-Ras G12V)
GDP-KRAS G12D [8] = target: T1, GDP-KRAS G12D; experiment: biochemical
GDP-KRAS G12V [9] = target: T2, GDP-KRAS G12V; experiment: biochemical
GppNp-KRAS G12D [10] = target: T3, GppNp-KRAS G12D; experiment: biochemical
GppNp-KRAS G12V = GppNp-KRAS G12V (Homo sapiens, UniProt P01116, G12V); experiment: biochemical
[11] = Homo sapiens, SW-620, 2 hours incubation

T1 sequence (P01116 1-169 isoform P01116-2 G12D): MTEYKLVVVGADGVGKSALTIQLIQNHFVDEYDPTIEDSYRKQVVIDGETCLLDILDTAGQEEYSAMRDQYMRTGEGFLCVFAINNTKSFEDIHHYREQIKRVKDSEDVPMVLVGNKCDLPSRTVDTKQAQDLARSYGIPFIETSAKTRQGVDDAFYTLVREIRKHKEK
T3 sequence (P01116 1-169 isoform P01116-2 G12D): as above
Chain of GppNp-KRAS G12V (P01116 1-169 isoform P01116-2 G12V): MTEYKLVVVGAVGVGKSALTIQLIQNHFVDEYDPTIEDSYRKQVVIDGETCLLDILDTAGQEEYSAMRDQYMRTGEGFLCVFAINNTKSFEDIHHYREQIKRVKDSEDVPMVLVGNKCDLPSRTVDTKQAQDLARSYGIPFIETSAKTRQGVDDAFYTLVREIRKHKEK
T2 sequence (P01116 1-169 isoform P01116-2 G12V): as above

Row | IC50 [7] [nM] | SMILES | IC50 (GDP-KRAS G12D [1]) [nM] | IC50 (GDP-KRAS G12V [2]) [nM] | IC50 (SW620 cells (K-Ras G12V) [3]; 2 hours incubation) [nM] | IC50 [4] [nM] | IC50 (SW620 cells (K-Ras G12V) [5]) [nM] | IC50 (GppNp-KRAS G12D [6]) [nM] | IC50 (SW620 cells (K-Ras G12V) [3]; [11]) [nM] | IC50 (GDP-KRAS G12D [8]) [nM] | IC50 (GDP-KRAS G12V [9]) [nM] | IC50 (GppNp-KRAS G12D [10]) [nM] | IC50 (GppNp-KRAS G12V) [nM]
1 |  | N#Cc1c(N)sc2c(F)ccc(-c3c(Cl)c4c5c(nc(OCC67CCCN6CC(F)C7)nc5c3F)N3CCCOCC3CO4)c12 (single isomer, unassigned) [Compound 66A] | 169 | 331 |  |  |  |  |  |  |  |  | 
2 |  | CCc1c(F)ccc2cc(N)cc(-c3nc4c5c(nc(OC[C@@]67CCCN6C[C@H](F)C7)nc5c3F)N3CCCOC[C@H]3CO4)c12 [Compound 6A] | 1.24 | 3.37 | 12.5 | 175 | 26.4 | 497 |  |  |  |  | 
3 |  | C=Cc1c(F)ccc2cc(N)cc(-c3nc4c5c(nc(OC[C@@]67CCCN6C[C@H](F)C7)nc5c3F)N3CCCOC[C@H]3CO4)c12 [Compound 6B] | 3.83 | 3.82 | 16.2 | 266 | 28.3 | 808 |  |  |  |  | 
4 |  | C#Cc1c(F)ccc2cc(N)cc(-c3nc4c5c(nc(OC[C@@]67CCCN6C[C@H](F)C7)nc5c3F)N3CCCOC[C@H]3[C@H](C)O4)c12 [Compound 18A] | 5.42 | 4.72 | 59.4 | 391 | 62 |  |  |  |  |  | 
5 |  | C#Cc1c(F)ccc2cc(N)cc(-c3nc4c5c(nc(OC[C@@]67CCCN6C[C@H](F)C7)nc5c3F)N3CC(F)COC[C@@H]3CO4)c12 (stereo partly shown) [Compound 29] |  |  |  | 620 | 158 |  |  |  |  |  | 
6 |  | C#Cc1c(F)ccc2cc(N)cc(-c3nc4c5c(nc(OC[C@@]67CCCN6C[C@H](F)C7)nc5c3F)N3[C@H](C)CCOC[C@H]3N4C)c12 [Compound 41] |  |  |  | 1140 | 40.1 |  |  | 5.51 | 4.31 | 376 | > 1000
7 | 0.453 | C#Cc1c(F)ccc2cc(N)cc(-c3nc4c5c(nc(OC[C@@]67CCCN6C[C@H](F)C7)nc5c3F)N3[C@@H](C)[C@@H](F)COC[C@H]3N4C)c12 [Compound 57] |  |  |  | 10 | 3.22 |  |  |  |  |  | 
8 | 0.404 | C#Cc1c(F)ccc2cc(N)cc(-c3nc4c5c(nc(OC[C@@]67CCCN6C[C@H](F)C7)nc5c3F)N3[C@@H](C)[C@H](F)COC[C@H]3N4C)c12 [Compound 58] |  |  |  | 21.6 | 1.2 |  |  |  |  |  | 
9 | 0.316 | C#Cc1c(F)ccc2cc(N)cc(-c3nc4c5c(nc(OC[C@@]67CCCN6C[C@H](F)C7)nc5c3F)N3[C@@H](COC)CCOC[C@H]3N4C)c12 [Compound 59A] |  |  |  | 61.8 | 13.3 |  |  |  |  |  | 
10 |  | C#Cc1c(F)ccc2cc(N)cc(-c3nc4c5c(nc(OC[C@@]67CCCN6C[C@H](F)C7)nc5c3F)N3CCC=CC[C@H]3C4=C)c12 [Compound 67] |  |  |  | 136 | 16.2 |  | 8.74 | 1.72 | 1.36 | 59.9 | 113
11 |  | C#Cc1c(F)ccc2cc(N)cc(-c3nc4c5c(nc(OC[C@@]67CCCN6C[C@H](F)C7)nc5c3F)N3CCCOCC3N4C3CC3)c12 (stereo partly shown) [Compound 68] |  |  |  | 169 | 39.3 |  | 5.95 | 2.18 | 3.49 | 187 | 356
12 |  | [2H]C1([2H])OCCCN2c3nc(OC[C@@]45CCCN4C[C@H](F)C5)nc4c(F)c(-c5cc(N)cc6ccc(F)c(C#C)c56)nc(c34)N(C)C21 (stereo partly shown) [Compound 76] |  |  |  | 76 | 7.86 |  | 2.08 | 2.84 | 1.14 | 96.3 | 118
13 |  | C#Cc1c(F)ccc2cc(N)cc(-c3nc4c5c(nc(OC[C@@]67CCCN6C[C@H](F)C7)nc5c3F)N3CCC(F)CCC3N4C)c12 (stereo partly shown) [Compound 77] |  |  |  | 103 |  |  |  | 7.63 | 15.1 | 177 | 
14 |  | C#Cc1c(F)ccc2cc(N)cc(-c3nc4c5c(nc(OC[C@@]67CCCN6C[C@H](F)C7)nc5c3F)N3CCCC/C(=C/F)C3N4C)c12 (stereo partly shown) [Compound 86] |  |  |  |  | 412 |  |  | 10.3 | 9.94 | > 1000 | > 1000
15 |  | C#Cc1c(F)ccc2cc(N)cc(-c3nc4c5c(nc(OC[C@@]67CCCN6C[C@H](F)C7)nc5c3F)N3[C@@H](C)CCOC[C@H]3N4C3CC3)c12 [Compound 90] |  |  |  | 415 | 40.6 |  | 9.38 | 3.72 | 1.28 | 190 | 898
16 |  | C#Cc1c(F)ccc2cc(N)cc(-c3nc4c5c(nc(OC[C@@]67CCCN6C[C@H](F)C7)nc5c3F)N3[C@@H](CC)CCOC[C@H]3N4C)c12 [Compound 94] |  |  |  | 82.5 | 6.09 |  | 1.71 | 1.17 | 0.576 | 224 | 204
17 |  | C#Cc1c(F)ccc2cc(N)cc(-c3nc4c5c(nc(OC[C@@]67CCCN6C[C@H](F)C7)nc5c3F)N3CCOCCC3N4C)c12 (stereo partly shown) [Compound 114] |  |  |  | 586 | 45.8 |  | 28.3 | 3.73 | 2.08 | 295 | 747
18 |  | C[C@H]1CCOC[C@H]2N(C)c3nc(-c4cc(O)cc5ccc(F)c(Cl)c45)c(F)c4nc(OC[C@@]56CCCN5C[C@H](F)C6)nc(c34)N12 [Compound 119] |  |  |  | 52.1 | 14.7 |  | 13 | 1.53 | 0.815 | 71.1 | 233
19 |  | CCc1c(F)ccc2cc(N)cc(-c3nc4c5c(nc(OC[C@@]67CCCN6C[C@H](F)C7)nc5c3F)N3[C@@H](C)CCOC[C@H]3N4C)c12 [Compound 127] |  |  |  | 173 | 62.6 |  | 21.9 | 3.87 | 2.13 | 299 | > 1000
20 |  | C#Cc1c(F)ccc2cc(N)cc(-c3nc4c5c(nc(OC[C@@]67CCCN6C[C@H](F)C7)nc5c3F)N3C/C(=N\OC)COC[C@H]3N4C)c12 [Compound 137] |  |  |  |  |  |  |  | 1.86 | 1.84 | 210 | 486
21 |  | C#Cc1c(F)ccc2cc(N)cc(-c3nc4c5c(nc(OCC6(CN7CCOCC7)CCC6)nc5c3F)N3CCCOCC3N4C)c12 (stereo not shown) [Compound 140] |  |  |  |  |  |  |  | 13.8 | 7.11 | > 1000 | > 1000
22 |  | C#Cc1c(F)ccc2cc(N)cc(-c3nc4c5c(nc(OCC(CN6CCOCC6)OC)nc5c3F)N3CCCOCC3N4C)c12 (stereo not shown) [Compound 142] |  |  |  |  |  |  |  | 233 | 65.4 | > 1000 | > 1000
23 |  | C#Cc1c(F)ccc2cc(N)cc(-c3nc4c5c(nc(OC[C@@]67CCCN6C[C@H](F)C7)nc5c3F)N3C(CCCC[C@@H]3C(C)O)N4C)c12 (stereo partly shown) [Compound 143] |  |  |  |  |  |  |  | 2.51 | 2.94 | 246 | 631
24 |  | C#Cc1c(F)ccc2cc(N)cc(-c3nc4c5c(nc(OC[C@@]67CCCN6C[C@H](F)C7)nc5c3F)N3C/C(=N\OC)COC[C@@H]3N4C)c12 [Compound 148] |  |  |  |  |  |  |  | 287 | 403 | > 1000 | > 1000
25 |  | C#Cc1c(F)ccc2cc(N)cc(-c3nc4c5c(nc(OC[C@@]67CCCN6C[C@H](F)C7)nc5c3F)N3CCCC3N4C)c12 (stereo partly shown) [Compound 153] |  |  |  |  |  |  |  | 83.4 | 13.7 | > 1000 | > 1000
26 | 2.54 | C#Cc1c(F)ccc2cc(N)cc(-c3nc4c5c(nc(OC[C@]67CC(=C)CN6C[C@@H](F)C7)nc5c3F)N3CCCOC[C@H]3N4C)c12 [Compound 171] |  |  |  |  | 43.7 |  |  |  |  |  | 

Row | SMILES | IC50 [7] [nM] | IC50 (GDP-KRAS G12D [1]) [nM] | IC50 (GDP-KRAS G12V [2]) [nM] | IC50 (SW620 cells (K-Ras G12V) [3]; 2 hours incubation) [nM] | IC50 [4] [nM] | IC50 (SW620 cells (K-Ras G12V) [5]) [nM] | IC50 (GppNp-KRAS G12D [6]) [nM] | IC50 (SW620 cells (K-Ras G12V) [3]; [11]) [nM] | IC50 (GDP-KRAS G12D [8]) [nM] | IC50 (GDP-KRAS G12V [9]) [nM] | IC50 (GppNp-KRAS G12D [10]) [nM] | IC50 (GppNp-KRAS G12V) [nM]
27 | C#Cc1c(F)ccc2cc(N)cc(-c3nc4c5c(nc(OC[C@@]67CCCN6C[C@H](F)C7)nc5c3F)N3[C@@H](C)CCOC[C@H]3N4C)c12 [Compound 36] | 0.352 |  |  |  | 16.9 | 1.2 |  | 1.01 | 0.339 | 0.189 | 19.7 | 30.4
28 | C#Cc1c(F)ccc2cc(N)cc(-c3nc4c5c(nc(OC[C@@]67CCCN6C[C@H](F)C7)nc5c3F)N3CCCC[C@H](F)[C@H]3N4C)c12 [Compound 40A] | 0.843 |  |  |  | 2.54 | 2.71 |  | 0.328 | 0.875 | 0.912 | 9.42 | 36.4
29 | C#Cc1c(F)ccc2cc(N)cc(-c3nc4c5c(nc(OC[C@@]67CCCN6C[C@H](F)C7)nc5c3F)N3[C@H]5C[C@H]5COC[C@H]3N4C)c12 [Compound 159B] | 5.4 |  |  |  | 307 |  |  |  |  |  |  | 
